# Results as given in US4914104A, “Imidazo [1,5-a]pyrimidine derivatives and process for their preparation” (Kyorin Pharmaceutical Co., Ltd., priority 1984, dated 1990).
# Columns and labels:
# Assay in all cases: Antifungal activity, standard agar dilution streak method
# Assay type in all cases: cell-based
# [1] = system: Trichophyton mentagrophytes MTU-19005; conditions: MTU19005, read-out: Minimum inhibitory concentration
# Procedure: (§1) The antifungal activity of the compound of the present invention was assayed by the standard agar dilution streak method against fungi.
# Candida albicans 3147 = conditions: read-out: Minimum inhibitory concentration
# Procedure: as §1
# [2] = system: Candida stellatidea IFO-1398; conditions: IFO1398, read-out: Minimum inhibitory concentration
# Procedure: as §1
# [3] = system: Aspergillus fumigatus MTU-06002; conditions: MTU06002, read-out: Minimum inhibitory concentration
# Procedure: as §1
# Microsporum canis 200100 = conditions: read-out: Minimum inhibitory concentration
# Procedure: as §1
# [4] = system: Trichophyton mentagrophytes MTU-19003; conditions: MTU19003, read-out: Minimum inhibitory concentration
# Procedure: as §1
# [5] = system: Candida albicans IFO-1594; conditions: IFO1594, read-out: Minimum inhibitory concentration
# Procedure: as §1
# [6] = system: Candida albicans IFO-1388; conditions: IFO1388, read-out: Minimum inhibitory concentration
# Procedure: as §1
# Candida albicans KYF-602 = conditions: KYF602, read-out: Minimum inhibitory concentration
# Procedure: as §1
# [7] = system: Candida albicans MTU-12124; conditions: MTU12124, read-out: Minimum inhibitory concentration
# Procedure: as §1
Compound,MIC [1] [mg/L],MIC (Candida albicans 3147) [mg/L],MIC [2] [mg/L],MIC [3] [mg/L],MIC (Microsporum canis 200100) [mg/L],MIC [4] [mg/L],MIC [5] [mg/L],MIC [6] [mg/L],MIC (Candida albicans KYF-602) [mg/L],MIC [7] [mg/L]
"Clc1cc(Cl)n2c(-c3cccs3)ncc2n1 [Exp. 1, 2,4-dichloro-6-(2-thienyl)imidazo[1,5-a]pyrimidine]",1.56,3.13,1.56,6.25,1.56,1.56,1.56,1.56,6.25,6.25
Clc1cc(Cl)n2c(-c3ccco3)ncc2n1 [Exp. 3],3.13,3.13,3.13,12.5,1.56,3.13,3.13,3.13,12.5,6.25
Clc1cc(Cl)n2c(Cc3cccs3)ncc2n1 [Exp. 4],1.56,3.13,3.13,12.5,1.56,1.56,3.13,6.25,6.25,6.25
Clc1cc(Cl)n2c(-c3ccsc3)ncc2n1 [Exp. 5],0.78,3.13,6.25,3.13,1.56,1.56,3.13,6.25,12.5,6.25
Clc1cc(Cl)n2c(-c3ccc(Br)s3)ncc2n1 [Exp. 6],0.78,0.78,0.78,3.13,0.78,1.56,3.13,0.78,3.13,0.78
Clc1cc(Cl)n2c(-c3ccc(Cl)s3)ncc2n1 [Exp. 7],0.78,0.2,0.78,,,0.78,0.2,0.78,0.39,1.56
Cc1ccc(-c2ncc3nc(Cl)cc(Cl)n23)s1 [Exp. 8],1.56,1.56,1.56,,,1.56,6.25,6.25,6.25,3.13

# Other lines, results leading:
MIC [1] [mg/L],MIC (Candida albicans 3147) [mg/L],MIC [2] [mg/L],MIC [3] [mg/L],MIC (Microsporum canis 200100) [mg/L],MIC [4] [mg/L],MIC [5] [mg/L],MIC [6] [mg/L],MIC (Candida albicans KYF-602) [mg/L],MIC [7] [mg/L],Compound
0.78,3.13,6.25,6.25,0.78,0.78,3.13,3.13,3.13,12.5,"Clc1cc(Cl)n2c(-c3ccccc3)nc(Cl)c2n1 [Exp. 13, 2,4,8-trichloro-6-phenylimidazo[1,5-a]pyrimidine]"
3.13,1.56,0.39,,,3.13,1.56,0.78,6.25,3.13,Clc1cc(Cl)n2c(-c3ccc(Br)cc3)nc(Cl)c2n1 [Exp. 17]
1.56,1.56,0.78,,,3.13,3.13,0.2,25,6.25,Clc1ccc(Cc2nc(Cl)c3nc(Cl)cc(Cl)n23)cc1 [compound 18]
1.56,0.78,1.56,,,3.13,1.56,0.2,1.56,1.56,Clc1cc(Cl)n2c(C3CCCCC3)nc(Cl)c2n1 [compound 19]
